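96-well plates; 48 h exposure; 5 concentrations. Endpoints by linear interpolation between flanking doses. Not reached: highest tested concentration assigned. GI50 is the concentration that inhibits growth by half.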 The source made the active and inactive calls. Rule as the data show it: active = GI50 up to about 1.1 µM and inactive = higher.
How the values were obtained:
Test in all cases: growth of human tumour cells (NCI), 48 h
786-0 = test system: 786-0
CCRF-CEM = test system: CCRF-CEM
DU-145 = test system: DU-145
HCT-15 = test system: HCT-15
HOP-62 = test system: HOP-62
LXFL 529 = test system: LXFL 529
M19-MEL = test system: M19-MEL
NCI-H226 = test system: NCI-H226
NCI-H23 = test system: NCI-H23
NCI/ADR-RES = test system: NCI/ADR-RES
OVCAR-3 = test system: OVCAR-3
OVCAR-8 = test system: OVCAR-8
PC-3 = test system: PC-3
SF-295 = test system: SF-295
SK-MEL-28 = test system: SK-MEL-28
SK-OV-3 = test system: SK-OV-3
SNB-19 = test system: SNB-19
T47D = test system: T47D
U-251 = test system: U-251
Hs-578T = test system: Hs-578T

Row | SMILES | GI50 (786-0) | GI50 (CCRF-CEM) | GI50 (DU-145) | GI50 (HCT-15) [µM] | GI50 (HOP-62) | GI50 (LXFL 529) | GI50 (M19-MEL) | GI50 (NCI-H226) | GI50 (NCI-H23) | GI50 (NCI/ADR-RES) | GI50 (OVCAR-3) | GI50 (OVCAR-8) | GI50 (PC-3) | GI50 (SF-295) | GI50 (SK-MEL-28) | GI50 (SK-OV-3) | GI50 (SNB-19) | GI50 (T47D) | GI50 (U-251) | GI50 (Hs-578T)
1 | CC1=NN(C(=O)c2ccccc2O)C(=O)/C1=C/c1cccc(O)c1 | 0.826 µM (active) | 2.88 µM (inactive) | 0.536 µM (active) | 1.46 | 1.18 µM (inactive) | 0.276 µM (active) | 0.596 µM (active) | 8.51 µM (inactive) | 0.405 µM (active) | 6.21 µM (inactive) | 0.824 µM (active) | 0.571 µM (active) | 3.19 µM (inactive) | 0.671 µM (active) | 50.6 µM (inactive) | 2.43 µM (inactive) | 0.543 µM (active) | 0.472 µM (active) | 0.277 µM (active) | 
2 | CC1C(c2ccccc2)N(C)C(c2ccccc2)C(C)C1(O)c1ccccc1 (stereo not drawn) | > 100 µM (inactive) | > 100 µM (inactive) |  | 84.1 | > 100 µM (inactive) | > 100 µM (inactive) | 47.4 µM (inactive) | 44.2 µM (inactive) | > 100 µM (inactive) |  | 51.4 µM (inactive) | > 100 µM (inactive) |  | 46.7 µM (inactive) | > 100 µM (inactive) | > 100 µM (inactive) | > 100 µM (inactive) |  | > 100 µM (inactive) | 
3 | COC(=O)C1=C(C(=O)OC)C(C(=O)OC)C(C(=O)OC)C(C(=O)OC)(C(=O)OC)C(C(=O)OC)=C1C(=O)OC (stereo not drawn) | 9.14 µM (inactive) | 2.77 µM (inactive) | 18.2 µM (inactive) | 8.39 | 32.3 µM (inactive) | 9.73 µM (inactive) | 12.8 µM (inactive) | 15.9 µM (inactive) | 18.6 µM (inactive) |  | 15.1 µM (inactive) | 11.8 µM (inactive) | 16.5 µM (inactive) | 19.2 µM (inactive) | 15.1 µM (inactive) | 27 µM (inactive) | 17.6 µM (inactive) | 21.9 µM (inactive) | 16.9 µM (inactive) | 34.5 µM (inactive)
4 | O=C(N/C(=C\c1cc(Cl)ccc1Cl)c1nc2cc(Cl)ccc2[nH]1)c1ccccc1 | 24.8 µM (inactive) | 17 µM (inactive) |  | 16.4 | 18 µM (inactive) | 13.6 µM (inactive) | 16 µM (inactive) | 17.3 µM (inactive) | 13 µM (inactive) |  | 15.2 µM (inactive) | 16.1 µM (inactive) |  | 16.1 µM (inactive) | 17.4 µM (inactive) | 21.5 µM (inactive) | 22.4 µM (inactive) |  | 16.1 µM (inactive) | 
5 | O=C(O)C1=Cc2cccc3cccc(c23)C1=O | > 100 µM (inactive) | > 100 µM (inactive) |  | > 100 | > 100 µM (inactive) | > 100 µM (inactive) | > 100 µM (inactive) | > 100 µM (inactive) | > 100 µM (inactive) |  | > 100 µM (inactive) | > 100 µM (inactive) |  | > 100 µM (inactive) | > 100 µM (inactive) | > 100 µM (inactive) | > 100 µM (inactive) |  | > 100 µM (inactive) | 
6 | O=C1Nc2c(ccc(Cl)c2I)C1=O | 15 µM (inactive) | 20.2 µM (inactive) |  | 18.9 | 20.8 µM (inactive) | 14 µM (inactive) | 11.4 µM (inactive) | 22.5 µM (inactive) | 14.6 µM (inactive) |  | 19.9 µM (inactive) | 28.2 µM (inactive) |  | 19.2 µM (inactive) | 18.4 µM (inactive) | 18.5 µM (inactive) | 42.3 µM (inactive) |  | 25.5 µM (inactive) | 

Reference: ChEMBL document CHEMBL1201862, “PubChem BioAssay data set” (2004)
